Experimental data as given in publication PMC3789677, “Select Dietary Phytochemicals Function as Inhibitors of COX-1 but Not COX-2” (PLoS ONE, 2013).

Key:
COX-1 = target: T1, COX-1 (Ovis aries, UniProt P05979); assay: In vitro COX enzyme assay (COX Inhibitor Screening Kit, Cayman); format: biochemical; details: means ± S.E.M. of 3 independent experiments
T1 construct: purchased Cayman Chemical Company (Ann Arbor, MI)
T1 sequence (P05979 25-600): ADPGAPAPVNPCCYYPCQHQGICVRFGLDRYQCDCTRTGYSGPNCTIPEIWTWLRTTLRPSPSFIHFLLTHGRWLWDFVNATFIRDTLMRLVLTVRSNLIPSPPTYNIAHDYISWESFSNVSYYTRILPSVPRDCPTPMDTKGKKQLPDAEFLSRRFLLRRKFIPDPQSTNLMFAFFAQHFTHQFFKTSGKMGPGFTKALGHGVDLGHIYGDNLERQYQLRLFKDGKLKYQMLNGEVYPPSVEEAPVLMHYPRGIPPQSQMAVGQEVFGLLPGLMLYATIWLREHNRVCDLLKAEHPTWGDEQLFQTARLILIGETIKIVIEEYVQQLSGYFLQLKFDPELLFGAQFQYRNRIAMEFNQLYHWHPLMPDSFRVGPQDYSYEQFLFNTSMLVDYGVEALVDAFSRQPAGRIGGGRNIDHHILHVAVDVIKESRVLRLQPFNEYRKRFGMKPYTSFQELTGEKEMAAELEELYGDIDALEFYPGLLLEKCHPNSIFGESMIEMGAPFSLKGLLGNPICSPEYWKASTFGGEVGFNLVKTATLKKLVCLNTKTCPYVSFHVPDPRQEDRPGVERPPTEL
Procedure: (§1) COX activity was evaluated using a COX Inhibitor Screening Kit from Cayman Chemical Company (Ann Arbor, MI) according to the manufacturer’s instructions.

COX-2 = target: T2, COX-2 (Homo sapiens, UniProt P35354); assay: as above; format: biochemical; details: means ± S.E.M. of 3 independent experiments
T2 construct: purchased Cayman Chemical Company (Ann Arbor, MI)
T2 sequence (P35354 18-604): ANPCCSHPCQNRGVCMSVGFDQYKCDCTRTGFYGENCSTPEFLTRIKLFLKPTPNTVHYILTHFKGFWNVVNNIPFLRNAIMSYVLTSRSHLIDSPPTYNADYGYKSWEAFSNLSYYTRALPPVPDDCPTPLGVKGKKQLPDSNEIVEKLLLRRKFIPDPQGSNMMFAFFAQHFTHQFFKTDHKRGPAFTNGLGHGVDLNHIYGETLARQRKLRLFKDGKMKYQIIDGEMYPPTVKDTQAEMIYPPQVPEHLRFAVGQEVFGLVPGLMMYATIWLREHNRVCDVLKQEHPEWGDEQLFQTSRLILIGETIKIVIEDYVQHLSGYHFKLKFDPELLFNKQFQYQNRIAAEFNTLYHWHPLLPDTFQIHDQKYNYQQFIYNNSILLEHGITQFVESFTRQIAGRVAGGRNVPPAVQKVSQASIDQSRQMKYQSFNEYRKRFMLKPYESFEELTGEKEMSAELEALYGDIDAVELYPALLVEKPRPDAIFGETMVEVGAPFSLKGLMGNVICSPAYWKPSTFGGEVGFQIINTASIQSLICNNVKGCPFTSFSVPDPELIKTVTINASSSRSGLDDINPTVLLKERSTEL
Procedure: as §1

[1] = test system: human umbilical vein endothelial cells (HUVECs); assay: TXB2 and 6-keto PGF1α assay in HUVECs (ratio as cardiovascular toxicity biomarker); format: cell-based; details: 3 µM
Procedure: Cells (6×10^5) were seeded in a six-well plate in the presence of 10% FBS. At 70-80% confluence, cells were pretreated with vehicle or individual compounds in 1 mL fresh medium for 2 h. […] Supernatant fractions were collected for prostaglandin measurement using enzyme immunoassay kits (Cayman Chemical Company).
Figure 2 Effects of dietary phytochemicals on (A) TXB2 and (B) 6-keto-PGF1α under physiological conditions. HUVECs were seeded in a six-well-plate (6×10^5 cells per well). At 70-80% confluence, 1 mL fresh medium containing DMSO or 3 µM of each individual compound was added and cells were further incubated for 8 h. Supernatant fractions were collected for prostaglandin measurement. (C) The ratio of TXB2/6-keto-PGF1α. Data are presented as means ± S.E.M (n = 4) and the asterisk(s) indicate a significant (*, p < 0.05; ***, p < 0.001) difference versus the vehicle control group.

Compound: O=c1cc(-c2ccc(O)cc2)oc2cc(O)cc(O)c12 [Apigenin]
- IC50 (COX-1): 94.1 ± 12.3 µM

Compound: COc1cc(/C=C/C(=O)CC(=O)/C=C/c2ccc(O)c(OC)c2)ccc1O [Curcumin]
- IC50 (COX-1): 330 ± 34.3 µM

Compound: O=C(O[C@@H]1Cc2c(O)cc(O)cc2O[C@@H]1c1cc(O)c(O)c(O)c1)c1cc(O)c(O)c(O)c1 [EGCG]
- IC50 (COX-1): 17.9 ± 4.2 µM
- IC50 (COX-2): 28.6 ± 3.8 µM
- ratio of TXB2/6-keto-PGF1α ([1]; physiological conditions, 8 h (Figure 2)): most potent inhibitory effect
- ratio of TXB2/6-keto-PGF1α ([1]; pro-inflammatory conditions, 2 h pretreatment then IL-1β 17.5 ng/mL for 8 h (Figure 3)): most potent inhibitory effect

Compound: O=c1c(-c2ccc(O)cc2)coc2cc(O)cc(O)c12 [Genistein]
- IC50 (COX-1): 9.9 ± 2.3 µM
- IC50 (COX-2): 256 ± 35.7 µM

Compound: O=c1c(O)c(-c2ccc(O)cc2)oc2cc(O)cc(O)c12 [Kaempferol]
- IC50 (COX-1): 111 ± 7.5 µM
- IC50 (COX-2): 236 ± 19.7 µM

Compound: O=C1C[C@@H](c2ccc(O)cc2)Oc2cc(O)cc(O)c21 [Naringenin]
- IC50 (COX-1): > 400 µM
- IC50 (COX-2): > 400 µM

Compound: O=c1c(O)c(-c2ccc(O)c(O)c2)oc2cc(O)cc(O)c12 [Quercetin]
- IC50 (COX-1): > 400 µM
- IC50 (COX-2): > 400 µM

Compound: Oc1ccc(/C=C/c2cc(O)cc(O)c2)cc1 [Resveratrol]
- IC50 (COX-1): 3.4 ± 1.1 µM
